# Read-outs that look alike come from different tables or passages of the source.
# Columns and labels:
# Assay type in all cases: cell-based
# [1] = tested on: Staphylococcus aureus 226; assay: in vitro antimicrobial activity, two-fold agar plate dilution method, S. aureus 226; settings: Table 1, S. aureus 226, 37° C., 20 hours, read-out: minimum inhibitory concentration (MIC)
# Description: (§1) The in vitro tests of antimicrobial activity of the compared compounds were determined by the two-fold agar plate dilution method described as follows: […]
# [2] = tested on: Staphylococcus aureus 209 P JC-1; assay: in vitro antimicrobial activity, two-fold agar-plate dilution method, S. aureus 209 P JC-1; settings: 20 hours
# Description: (§2) In vitro antimicrobial activity was determined by the two-fold agar-plate dilution method as described below.
# (§3) One loopful of an overnight culture of each test strain in Trypticase-soy broth (10^8 viable cells per ml) was streaked on heart infusion agar (HI-agar) containing graded concentration of antibiotics, and the minimum inhibitory concentration (MIC) was expressed in terms of meg/ml after incubation at 37° C. for 20 hours.
# (§4) The data in Table 1 below present a comparison between the 2-(C1 -C6 alkyl)-cephem compounds of the present invention and known cephem compounds structurally analogous to the present compounds, differing only by alkyl substitution in the 3-position. The in vitro tests of antimicrobial activity of the compared compounds were determined by the two-fold agar plate dilution method described as follows:
# (§5) One loopful of an overnight culture of each test strain in Trypticase-soy broth (10^8 viable cells per ml) was streaked on heart infusion agar (HI sugar) containing graded concentration of antibiotics, and the minimum inhibitory concentration (MIC) was expressed in terms of mcg/ml after incubation at 37° C. for 20 hours.
# [3] = tested on: Staphylococcus aureus 278; assay: in vitro antimicrobial activity, two-fold agar plate dilution method, S. aureus 278; settings: Table 1, S. aureus 278, 37° C., 20 hours, read-out: minimum inhibitory concentration (MIC)
# Description: as §1
# [4] = tested on: Staphylococcus aureus 206; assay: in vitro antimicrobial activity, two-fold agar plate dilution method, S. aureus 206; settings: Table 1, S. aureus 206, 37° C., 20 hours, read-out: minimum inhibitory concentration (MIC)
# Description: as §1
# [5] = tested on: Staphylococcus aureus 277; assay: in vitro antimicrobial activity, two-fold agar plate dilution method, S. aureus 277; settings: Table 1, S. aureus 277, 37° C., 20 hours, read-out: minimum inhibitory concentration (MIC)
# Description: as §1
# [6] = tested on: Bacillus subtilis ATCC-6633; assay: in vitro antimicrobial activity, two-fold agar-plate dilution method, B. subtilis ATCC-6633; settings: 20 hours
# Description: as §2, §3, §4, §5
# [7] = tested on: Staphylococcus aureus 213; assay: in vitro antimicrobial activity, two-fold agar plate dilution method, S. aureus 213; settings: Table 1, S. aureus 213, 37° C., 20 hours, read-out: minimum inhibitory concentration (MIC)
# Description: as §1
# [8] = 209PJC1, Table 1, S. aureus 209 P JC-1, 37° C., read-out: minimum inhibitory concentration (MIC)
# [9] = S. aureus 209-P JC-1, 37° C., HI-agar, read-out: MIC
# [10] = ATCC6633, B. subtilis ATCC-6633, 37° C., HI-agar, read-out: MIC
# [11] = ATCC6633, Table 1, B. subtilis ATCC-6633, 37° C., read-out: minimum inhibitory concentration (MIC)
SMILES,MIC [1],"MIC [2, 8]","MIC [2, 9]",MIC [3],MIC [4],MIC [5],"MIC [6, 10]","MIC [6, 11]",MIC [7]
"CC1C=C(C(=O)O)N2C(=O)C(NC(=O)C(O)c3cccs3)[C@H]2S1 (stereo partly drawn) [Applicants' compound (2), 2-Methyl-7-[2-hydroxy-2-(2-thienyl)acetamido]-3-cephem-4-carboxylic acid]",3.13 µg/mL,0.78 µg/mL,0.78 µg/mL,3.13 µg/mL,0.78 µg/mL,3.13 µg/mL,0.78 µg/mL,0.78 µg/mL,3.13 µg/mL
"CC1C=C(C(=O)O)N2C(=O)C(NC(=O)C(C(=O)Oc3ccc4c(c3)CCC4)c3ccccc3)[C@H]2S1 (stereo partly drawn) [Applicants' compound (3), 2-Methyl-7-[2-(5-indanyloxy)carbonyl-2-phenylacetamido]-3-cephem-4-carboxylic acid]",0.2 µg/mL,1.56 µg/mL,1.56 µg/mL,0.39 µg/mL,0.39 µg/mL,0.78 µg/mL,6.25 µg/mL,6.25 µg/mL,0.39 µg/mL
"CC1C=C(C(=O)O)N2C(=O)C(NC(=O)C(OC(=O)c3ccncc3)c3ccccc3)[C@H]2S1 (stereo partly drawn) [Applicants' compound (4), 2-Methyl-7-(2-isonicotinoyloxy-2-phenylacetamido)-3-cephem-4-carboxylicacid]",0.78 µg/mL,0.39 µg/mL,0.39 µg/mL,1.56 µg/mL,0.78 µg/mL,6.25 µg/mL,0.78 µg/mL,0.78 µg/mL,1.56 µg/mL
"CC1C=C(C(=O)O)N2C(=O)C(NC(=O)Cc3cccc(Cl)c3)[C@H]2S1 (stereo partly drawn) [Applicants' compound (6), 2-Methyl-7-[2-(3-chlorophenyl)acetamido]-3-cephem-4-carboxylic acid]",0.2 µg/mL,0.1 µg/mL,0.1 µg/mL,0.39 µg/mL,0.39 µg/mL,0.78 µg/mL,0.2 µg/mL,0.2 µg/mL,0.3 µg/mL
"CC1C=C(C(=O)O)N2C(=O)C(NC(=O)C(O)c3ccccc3)[C@H]2S1 (stereo partly drawn) [Applicants' compound (7), 2-Methyl-7-(2-hydroxy-2-phenylacetamido)-3-cephem-4-carboxylic acid]",1.56 µg/mL,0.78 µg/mL,0.78 µg/mL,1.56 µg/mL,1.56 µg/mL,6.25 µg/mL,0.39 µg/mL,0.39 µg/mL,1.56 µg/mL
"CC1C=C(C(=O)O)N2C(=O)C(NC(=O)Cc3ccccc3)[C@H]2S1 (stereo partly drawn) [Applicants' compound (8), 2-Methyl-7-(2-phenylacetamido)-3-cephem-4-carboxylic acid]",1.56 µg/mL,0.78 µg/mL,0.78 µg/mL,1.56 µg/mL,1.56 µg/mL,3.13 µg/mL,0.2 µg/mL,0.2 µg/mL,1.56 µg/mL
"CC1C=C(C(=O)O)N2C(=O)C(NC(=O)C(N=[N+]=[N-])c3ccccc3)[C@H]2S1 (stereo partly drawn) [Applicants' compound (10), 2-Methyl-7-(2-azido-2-phenylacetamido)-3-cephem-4-carboxylic acid]",1.56 µg/mL,1.56 µg/mL,1.56 µg/mL,1.56 µg/mL,1.56 µg/mL,12.5 µg/mL,0.39 µg/mL,0.39 µg/mL,1.56 µg/mL
"CC1C=C(C(=O)O)N2C(=O)C(NC(=O)Cc3cccnc3)[C@H]2S1 (stereo partly drawn) [Applicants' compound (15), 2-Methyl-7-[2-(3-pyridyl)acetamido]-3-cephem-4-carboxylic acid]",6.25 µg/mL,3.13 µg/mL,3.13 µg/mL,6.25 µg/mL,6.25 µg/mL,25 µg/mL,0.78 µg/mL,0.78 µg/mL,6.25 µg/mL

# More lines, now with the values ahead:
MIC [1],"MIC [2, 8]","MIC [2, 9]",MIC [3],MIC [4],MIC [5],"MIC [6, 10]","MIC [6, 11]",MIC [7],SMILES
1.56 µg/mL,1.56 µg/mL,1.56 µg/mL,3.13 µg/mL,3.13 µg/mL,12.5 µg/mL,3.13 µg/mL,3.13 µg/mL,3.13 µg/mL,"CC1C=C(C(=O)O)N2C(=O)C(NC(=O)C(NC(=O)CSc3nncs3)c3ccccc3)[C@H]2S1 (stereo partly drawn) [Applicants' compound (1), 2-Methyl-7-[N-[2-(1,3,4-thiadiazol-2-ylthio)acetyl]phenylglycyl]amino-3-cephem-4-carboxylic acid]"
1.56 µg/mL,0.78 µg/mL,0.78 µg/mL,1.56 µg/mL,1.56 µg/mL,1.56 µg/mL,0.39 µg/mL,0.39 µg/mL,1.56 µg/mL,"CC1C=C(C(=O)O)N2C(=O)C(NC(=O)Cc3cccs3)[C@H]2S1 (stereo partly drawn) [Applicants' compound (5), 2-Methyl-7-[2-(2-thienyl)acetamido]-3-cephem-4-carboxylic acid]"
0.39 µg/mL,0.2 µg/mL,0.2 µg/mL,0.78 µg/mL,0.39 µg/mL,1.56 µg/mL,0.2 µg/mL,0.2 µg/mL,0.39 µg/mL,"CC1C=C(C(=O)O)N2C(=O)C(NC(=O)CSc3ccccc3)C2S1 (stereo not drawn) [Applicants' compound (9), 2-Methyl-7-(2-phenylthioacetamido)-3-cephem-4-carboxylic acid]"
3.13 µg/mL,1.56 µg/mL,1.56 µg/mL,6.25 µg/mL,3.13 µg/mL,3.13 µg/mL,0.78 µg/mL,0.78 µg/mL,6.25 µg/mL,"CC1C=C(C(=O)O)N2C(=O)C(NC(=O)CSc3nncs3)[C@H]2S1 (stereo partly drawn) [Applicants' compound (11), 2-Methyl-7-[2-(1,3,4-thiadiazol-2-ylthio)acetamido]-3-cephem-4-carboxylic acid]"
3.13 µg/mL,3.13 µg/mL,3.13 µg/mL,6.25 µg/mL,3.13 µg/mL,6.25 µg/mL,1.56 µg/mL,1.56 µg/mL,6.25 µg/mL,"CC1C=C(C(=O)O)N2C(=O)C(NC(=O)Cc3cnsn3)[C@H]2S1 (stereo partly drawn) [Applicants' compound (12), 2-Methyl-7-[2-(1,2,5-thiadiazol-3-yl)acetamido]-3-cephem-4-carboxylic acid]"
6.25 µg/mL,3.13 µg/mL,3.13 µg/mL,6.25 µg/mL,6.25 µg/mL,3.13 µg/mL,3.13 µg/mL,3.13 µg/mL,12.5 µg/mL,"CC1C=C(C(=O)O)N2C(=O)C(NC(=O)CC#N)[C@H]2S1 (stereo partly drawn) [Applicants' compound (13), 2-Methyl-7-(2-cyanoacetamido)-3-cephem-4-carboxylic acid]"
3.13 µg/mL,1.56 µg/mL,1.56 µg/mL,3.13 µg/mL,3.13 µg/mL,1.56 µg/mL,1.56 µg/mL,1.56 µg/mL,6.25 µg/mL,"C=CCSCC(=O)NC1C(=O)N2C(C(=O)O)=CC(C)S[C@H]12 (stereo partly drawn) [Applicants' compound (14), 2-Methyl-7-[2-(allylthio)acetamido]-3-cephem-4-carboxylic acid]"

# Reference: US4308380A, “2-Lower alkyl-2 or 3-cephem-4-carboxylic acid derivatives” (Fujisawa Pharmaceutical Co., Ltd., priority 1973, dated 1981)
